Tests used:
Assay in all cases: relative viability (nuclei count vs DMSO), 5 days (fraction); higher = more cells survive
[1] = compound: CCC1=CN=CN=C1N2CCN(CC2)CC3=NC4=C(N3)C=C(C=C4)C(F)(F)F + Cc1nc(Nc2ncc(C(=O)Nc3c(C)cccc3Cl)s2)cc(N2CCN(CCO)CC2)n1 [Dasatinib] (partner 0.075 µM)
How it was run: (§1)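 For relative viability, nuclei counts in treated wells were divided by those in vehicle wells. Lung cancer cell lines had been pin-tool dosed in 1536-well plates the day after seeding and cultured for 5 days, then fixed and stained in one step (final 0.05% Triton X-100, 1% formaldehyde, 1 ug/ml Hoechst) and imaged at 4×. Doses were one drug alone or a fixed anchor-drug dose plus five library-drug doses (not always all listed) in √10 steps, and values are duplicate-plate medians.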

[2] = compound: CCn1c(-c2nonc2N)nc2cnc(Oc3cccc(NC(=O)c4ccc(OCCN5CCOCC5)cc4)c3)cc21 + Cc1nc(Nc2ncc(C(=O)Nc3c(C)cccc3Cl)s2)cc(N2CCN(CCO)CC2)n1 [Dasatinib] (partner 0.075 µM)
How it was run: as §1

Mirin + Lapatinib = compound: N=C1NC(=O)/C(=C/c2ccc(O)cc2)S1 [Mirin] + CS(=O)(=O)CCNCc1ccc(-c2ccc3ncnc(Nc4ccc(OCc5cccc(F)c5)c(Cl)c4)c3c2)o1 [Lapatinib] (partner 2 µM)
How it was run: as §1

Mirin + Phenformin = compound: N=C1NC(=O)/C(=C/c2ccc(O)cc2)S1 [Mirin] + N=C(N)NC(=N)NCCc1ccccc1 [Phenformin] (partner 250 µM)
How it was run: as §1

Cell Line | relative viability ([1]; first compound 0.04 µM) | relative viability ([1]; first compound 0.1265 µM) | relative viability ([1]; first compound 0.4 µM) | relative viability ([1]; first compound 1.265 µM) | relative viability ([1]; first compound 4 µM) | relative viability ([2]; first compound 0.04 µM) | relative viability ([2]; first compound 0.1265 µM) | relative viability ([2]; first compound 0.4 µM) | relative viability ([2]; first compound 1.265 µM) | relative viability ([2]; first compound 4 µM) | relative viability (Mirin + Lapatinib; first compound 0.25 µM) | relative viability (Mirin + Lapatinib; first compound 0.7906 µM) | relative viability (Mirin + Lapatinib; first compound 2.5 µM) | relative viability (Mirin + Lapatinib; first compound 7.906 µM) | relative viability (Mirin + Lapatinib; first compound 25 µM) | relative viability (Mirin + Phenformin; first compound 0.25 µM) | relative viability (Mirin + Phenformin; first compound 0.7906 µM) | relative viability (Mirin + Phenformin; first compound 2.5 µM) | relative viability (Mirin + Phenformin; first compound 7.906 µM) | relative viability (Mirin + Phenformin; first compound 25 µM)
NCI-H3122 | 0.848 | 0.781 | 0.804 | 0.709 | 1.02 | 0.955 | 0.82 | 0.651 | 0.554 | 0.525 | 1.04 | 1.02 | 1.05 | 1.05 | 1.18 | 0.378 | 0.426 | 0.414 | 0.378 | 0.467
NCI-H520 | 0.212 | 0.181 | 0.224 | 0.206 | 0.226 | 0.166 | 0.174 | 0.166 | 0.163 | 0.139 | 0.97 | 0.605 | 0.857 | 0.551 | 0.391 | 0.751 | 0.459 | 0.701 | 0.338 | 0.356
NCI-H1755 | 0.427 | 0.396 | 0.416 | 0.375 | 0.381 | 0.373 | 0.257 | 0.15 | 0.206 | 0.186 | 1.03 | 0.951 | 1.05 | 1.11 | 1.18 | 0.617 | 0.595 | 0.683 | 0.63 | 0.678
NCI-H358 | 0.234 | 0.147 | 0.179 | 0.14 | 0.172 | 0.162 | 0.195 | 0.169 | 0.219 | 0.141 | 0.466 | 0.514 | 0.489 | 0.52 | 0.379 | 0.344 | 0.347 | 0.318 | 0.313 | 0.213
NCI-H1734 | 0.403 | 0.532 | 0.522 | 0.476 | 0.441 | 0.416 | 0.39 | 0.232 | 0.229 | 0.198 | 1.02 | 0.906 | 1.06 | 0.941 | 0.905 | 0.395 | 0.324 | 0.35 | 0.394 | 0.352
EPLC-272H | 0.332 | 0.33 | 0.313 | 0.291 | 0.421 | 0.513 | 0.326 | 0.159 | 0.263 | 0.227 | 0.9 | – | 0.886 | 0.83 | 0.664 | 0.354 | – | 0.307 | 0.254 | 0.234
NCI-H2228 | 0.515 | 0.44 | 0.409 | 0.416 | 0.712 | 0.592 | 0.519 | 0.431 | 0.407 | 0.421 | 0.88 | 1 | 1.51 | 1.12 | 0.921 | 0.377 | 0.299 | 0.303 | 0.295 | 0.309
